Results published in patent EP1072948B1, “Thermally processed image recording material” (FUJIFILM Corporation, priority 1999, dated 2001).

Assays:
[1] = Example 1: image storage stability 1 (developed material stored in the dark); conditions: 24 hours, relative humidity 50%
Procedure: (§1) After each thermally processed image recording material was light-exposed by a laser sensitometer (details are given below), the thermally processed image recording material was treated at 118°C for 5 seconds and then treated at 122°C for 16 seconds (heat development).
(§2) The evaluation of the image obtained was performed by using a Macbeth TD904 densitometer (visible density). The measurement results were evaluated as Dmin, sensitivity (evaluated by a relative value of a reciprocal of a ratio of exposure amounts giving a density higher than Dmin by 1.0, and the sensitivity of the thermally processed image recording material of Experiment No. 1 shown in Table 1 below was defined as 100), Dmax, and gradation (contrast) (fresh photographic properties). The contrast was expressed by a gradient of a straight line connecting the points at the densities from which the value for Dmin was subtracted, 0.5 and 1.5, with the abscissa being a logarithm of the exposure amount.

[2] = Example 1: image storage stability 2 (developed material stored under light irradiation); conditions: 24 hours, 10,000 luces, relative humidity 50%
Procedure: as §1, §2

[3] = Example 2: image storage stability 1 (developed material stored in the dark); conditions: 24 hours, relative humidity 50%
Procedure: (§3) Each light-exposed thermally processed image recording material was heat-developed by using a heat-developing apparatus as shown in Fig.1. The roller surface material of the heat development section was composed of silicone rubber, and the flat surface consisted of Teflon non-woven fabric. The heat development was performed at a transportation linear speed of 20 mm/second and a temperature of 90-110°C in the preheating section for 15 seconds (driving units of the preheating section and the heat development section were independent from each other, and speed difference as to the heat development section was adjusted to -0.5% to -1%), and 120°C for 20 seconds in the heat development section, and for 15 seconds in the gradual cooling section. The temperature precision as for the transverse direction was ±1°C.
as §2, with “0.3” for “0.5”

[4] = Example 2: image storage stability 2 (developed material stored under light irradiation); conditions: 24 hours, 10,000 luces, relative humidity 50%
Procedure: as §3
as §2, with “0.3” for “0.5”

| Image storage stability-1 (stored in dark, 60°C, 50%) Dmax ([1]; Table 1, 1.6×10^-1 mol/mol-Ag) | Image storage stability-1 (stored in dark, 60°C, 50%) Dmin ([1]; Table 1, 1.6×10^-1 mol/mol-Ag) | Image storage stability-2 (stored in light, 40°C, 50%) Dmax ([2]; Table 1, 1.6×10^-1 mol/mol-Ag) | Image storage stability-2 (stored in light, 40°C, 50%) Dmin ([2]; Table 1, 1.6×10^-1 mol/mol-Ag) | Image storage stability-1 (stored in dark, 60°C, 50%) Dmax ([3]; Table 3, 8×10^-2 mol/mol-Ag) | Image storage stability-1 (stored in dark, 60°C, 50%) Dmin ([3]; Table 3, 8×10^-2 mol/mol-Ag) | Image storage stability-2 (stored in light, 40°C, 50%) Dmax ([4]; Table 3, 8×10^-2 mol/mol-Ag) | Image storage stability-2 (stored in light, 40°C, 50%) Dmin ([4]; Table 3, 8×10^-2 mol/mol-Ag) | Image storage stability-1 (stored in dark, 60°C, 50%) Dmax ([1]; Table 2, 1.6×10^-1 mol/mol-Ag) | Image storage stability-1 (stored in dark, 60°C, 50%) Dmin ([1]; Table 2, 1.6×10^-1 mol/mol-Ag) | Image storage stability-2 (stored in light, 40°C, 50%) Dmax ([2]; Table 2, 1.6×10^-1 mol/mol-Ag) | Image storage stability-2 (stored in light, 40°C, 50%) Dmin ([2]; Table 2, 1.6×10^-1 mol/mol-Ag) | Image storage stability-1 (stored in dark, 60°C, 50%) Dmax ([3]; Table 4, 8×10^-2 mol/mol-Ag) | Image storage stability-1 (stored in dark, 60°C, 50%) Dmin ([3]; Table 4, 8×10^-2 mol/mol-Ag) | Image storage stability-2 (stored in light, 40°C, 50%) Dmax ([4]; Table 4, 8×10^-2 mol/mol-Ag) | Image storage stability-2 (stored in light, 40°C, 50%) Dmin ([4]; Table 4, 8×10^-2 mol/mol-Ag) | SMILES |
| --- | --- | --- | --- | --- | --- | --- | --- | --- | --- | --- | --- | --- | --- | --- | --- | --- |
|  |  |  |  |  |  |  |  | 3.0 | 0.18 | 3.0 | 0.17 | 3.9 | 0.09 | 4.0 | 0.07 | CCCCOCCCNC(=O)c1cccc(S(=O)(=O)C(Br)(Br)Br)c1 [P'-15] |
|  |  |  |  |  |  |  |  | 3.0 | 0.17 | 3.0 | 0.17 | 3.9 | 0.09 | 4.0 | 0.08 | CCC(CC)NC(=O)c1cccc(S(=O)(=O)C(Br)(Br)Br)c1 [P'-18] |
|  |  |  |  |  |  |  |  | 3.0 | 0.17 | 3.0 | 0.17 | 3.9 | 0.09 | 4.0 | 0.07 | CCCC(C)NC(=O)c1cccc(S(=O)(=O)C(Br)(Br)Br)c1 (centres unmarked) [P'-20] |
| 2.9 | 0.17 | 3.0 | 0.17 | 3.9 | 0.09 | 4.0 | 0.08 |  |  |  |  |  |  |  |  | COCCCNC(=O)c1cccc(S(=O)(=O)C(Br)(Br)Br)c1 [P-11] |
| 3.0 | 0.20 | 3.0 | 0.20 |  |  |  |  |  |  |  |  |  |  |  |  | CCCCNS(=O)(=O)c1cccc(S(=O)(=O)C(Br)(Br)Br)c1 [P-18] |

Continued, compound first:

| SMILES | Image storage stability-1 (stored in dark, 60°C, 50%) Dmax ([1]; Table 1, 1.6×10^-1 mol/mol-Ag) | Image storage stability-1 (stored in dark, 60°C, 50%) Dmin ([1]; Table 1, 1.6×10^-1 mol/mol-Ag) | Image storage stability-2 (stored in light, 40°C, 50%) Dmax ([2]; Table 1, 1.6×10^-1 mol/mol-Ag) | Image storage stability-2 (stored in light, 40°C, 50%) Dmin ([2]; Table 1, 1.6×10^-1 mol/mol-Ag) | Image storage stability-1 (stored in dark, 60°C, 50%) Dmax ([3]; Table 3, 8×10^-2 mol/mol-Ag) | Image storage stability-1 (stored in dark, 60°C, 50%) Dmin ([3]; Table 3, 8×10^-2 mol/mol-Ag) | Image storage stability-2 (stored in light, 40°C, 50%) Dmax ([4]; Table 3, 8×10^-2 mol/mol-Ag) | Image storage stability-2 (stored in light, 40°C, 50%) Dmin ([4]; Table 3, 8×10^-2 mol/mol-Ag) | Image storage stability-1 (stored in dark, 60°C, 50%) Dmax ([1]; Table 2, 1.6×10^-1 mol/mol-Ag) | Image storage stability-1 (stored in dark, 60°C, 50%) Dmin ([1]; Table 2, 1.6×10^-1 mol/mol-Ag) | Image storage stability-2 (stored in light, 40°C, 50%) Dmax ([2]; Table 2, 1.6×10^-1 mol/mol-Ag) | Image storage stability-2 (stored in light, 40°C, 50%) Dmin ([2]; Table 2, 1.6×10^-1 mol/mol-Ag) | Image storage stability-1 (stored in dark, 60°C, 50%) Dmax ([3]; Table 4, 8×10^-2 mol/mol-Ag) | Image storage stability-1 (stored in dark, 60°C, 50%) Dmin ([3]; Table 4, 8×10^-2 mol/mol-Ag) | Image storage stability-2 (stored in light, 40°C, 50%) Dmax ([4]; Table 4, 8×10^-2 mol/mol-Ag) | Image storage stability-2 (stored in light, 40°C, 50%) Dmin ([4]; Table 4, 8×10^-2 mol/mol-Ag) |
| --- | --- | --- | --- | --- | --- | --- | --- | --- | --- | --- | --- | --- | --- | --- | --- | --- |
| CCCCCCOCCN(CC)C(=O)c1cccc(S(=O)(=O)C(Br)(Br)Br)c1 [Comparative Compound 1] | 2.1 | 0.17 | 2.5 | 0.17 | 2.7 | 0.08 | 3.2 | 0.08 |  |  |  |  |  |  |  |  |
| CCNC(=O)c1ccccc1S(=O)(=O)C(Br)(Br)Br [Comparative Compound 3] | 2.9 | 0.41 | 3.0 | 0.25 | 4.1 | 0.35 | 4.1 | 0.15 |  |  |  |  |  |  |  |  |
| CCCCCCCCCCCCCCCCNC(=O)c1cccc(S(=O)(=O)C(Br)(Br)Br)c1 [Comparative Compound (1)] |  |  |  |  |  |  |  |  | 2.8 | 0.54 | 2.8 | 0.43 | 3.6 | 0.35 | 3.4 | 0.22 |
| O=C(c1cccc(S(=O)(=O)C(Br)(Br)Br)c1)N1CCCC1 [Comparative Compound (3)] |  |  |  |  |  |  |  |  | 2.9 | 0.42 | 3.0 | 0.40 | 3.6 | 0.44 | 3.6 | 0.23 |
| CCCCCCCCN(CCCCCCCC)S(=O)(=O)c1ccc(S(=O)(=O)C(Br)(Br)Br)cc1 [Comparative Compound (4)] |  |  |  |  |  |  |  |  | 2.8 | 0.59 | 2.9 | 0.47 | 3.7 | 0.39 | 3.6 | 0.25 |
| CCCCCCCCCCCCN(CCCCCCCCCCCC)C(=O)c1cc(S(C)(=O)=O)ccc1S(=O)(=O)C(Br)(Br)Br [Comparative Compound (5)] |  |  |  |  |  |  |  |  | 2.8 | 0.60 | 2.9 | 0.50 | 3.7 | 0.43 | 3.7 | 0.29 |
| CCOCCNC(=O)c1cccc(S(=O)(=O)C(Br)(Br)Br)c1 [P'-1] |  |  |  |  |  |  |  |  | 3.0 | 0.18 | 3.0 | 0.17 | 3.9 | 0.09 | 4.0 | 0.08 |
